Assays:
THP1-Dual cells = experiment: THP1-Dual cytotoxicity (Cell Titer Glo, ATP); type: cell-based, human; conditions: Human Reporter Cell Line THP1; read-out: Thp1 cytotox CC50
Method in brief: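 Human THP1-Dual cells were treated across an 8-point dose-response range. Cytotoxicity was measured in-plate by CellTiter-Glo luminescence, which quantifies ATP as a marker of metabolically active cells, and CC50 was taken as the 50% cytotoxic concentration.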

[1] = test system: IP-10 in mBMDMs (wild-type and IRF3 KO); experiment: IP-10 induction in mouse bone marrow derived macrophages (ELISA); type: cell-based; conditions: increasing concentrations, wild-type vs IRF3 knock-out cells
Method: IP-10 levels were determined by mouse CXCL10/IP10 ELISA (Invitrogen, Carlsbad, Calif.) and are expressed as pg/ml. Data represents group mean+/−standard deviation.
IP-10 expression was determined by mouse CXCL10/IP10 ELISA (Invitrogen, Carlsbad, Calif.), and is expressed as pg/ml. Data represents group mean+/−standard deviation.
Target specificity of chemical entities corresponding to the ND and NA chemofamiles was examined by determining dose-dependent expression of IP10, a highly inducible, primary response gene that belongs to the C-X-C chemokine superfamily. […] IP-10 expression was monitored by a mouse CXCL10/IP10 ELISA (Invitrogen, Carlsbad, Calif.), and is expressed at FIG. 20 and FIG. 21 as pg/ml.

BV2 cells = experiment: Gene induction in BV2 cells (qtPCR); type: cell-based, mouse; conditions: 10 ug/ml, 3 hours, compared to 5′pppRNA
Method: (§1) RNA was collected from cell pellets and qtPCR was performed with indicated primers. Data is depicted as mRNA fold-change versus vehicle. Values are normalized to actin and are presented as fold change over vehicle control.
(§2) Total RNA isolated from brain cortex, or RNA from cell culture, was reverse transcribed using an Omniscript Reverse Transcription kit (Qiagen). Quantitative PCR was performed using the TaqMan Gene Expression Assays (Applied Biosystems) on an ABI-prism 7700. Results were normalized to β-actin expression and analyzed relative to appropriate controls. The relative quantification of the gene of interest was determined using the comparative CT method (2^−ΔΔCt)
(§3) Since inflammatory pathways mediated by NF-κB are known to have negative effects on stroke outcome, the induction of key detrimental genes including TNF and IL-6 in response to drug treatment was evaluated. […] RNA was collected from cell pellets and qtPCR was performed with indicated primers. Values are normalized to actin and are presented as fold change over vehicle control.

Neuro2a cells = experiment: Gene induction in Neuro2a cells (qtPCR); type: cell-based, mouse; conditions: 10 ug/ml, 3 hours, compared to 5′pppRNA
Method: as §1, §2, §3

[2] = test system: IRF3 related genes in brain cortical tissue; experiment: DMXAA-induced IRF-related gene expression in mouse brain cortex; type: in vivo
Method: FIG. 7A is a bar graph depicting DMXAA-induced induction of IRF-related gene expression in mice. […] RNA was extracted and qtPCR was performed with indicated primers. Data is depicted as mRNA fold-change versus vehicle. Values depicted are group means+/−SEM; n=4 per group.
as §2
Values depicted are group means+/−SEM; n=4 per group.

cerebral ischemic injury = experiment: Middle cerebral artery occlusion (MCAO), infarct volume; type: in vivo, mouse; conditions: 60 minute MCAO, 24 hours
Method: Mice were anesthetized and subjected to middle cerebral artery occlusion (MCAO) using the monofilament suture method. Briefly, a silicone-coated 7-0 monofilament nylon surgical suture was threaded through the external carotid artery to the internal carotid artery to block the middle cerebral artery; […] The suture was then removed to restore blood flow. Mice undergoing ischemic preconditioning followed by injurious ischemia were rested in their home cage for 72 h before receiving the second MCAO (45 min). Cerebral blood flow (CBF) was monitored throughout surgery by laser Doppler flowmetry. The mean CBF value between groups was consistent for each experiment. […] Body temperature was monitored and maintained at 37° C. with a thermostat-controlled heating pad.
Mouse brain was sliced into 7×1 mm coronal sections before 2,3,5-triphenyltetrazolium chloride TTC staining, and the volume of infarct was determined by summing of the area of infarct from individual slices. The infarct size for each image was determined using NIH image analyses. […]
IRFs are master regulators of innate immune receptors, constituting a family of DNA-binding proteins expressed in a variety of tissues. […] Infarct volume was measured 24 hours after surgery. […] Specifically, gene transcription was measured in the brain 24 hours post MCAO in LPS preconditioned wildtype, IRF3 deficient, and IRF7 deficient mice using quantitative PCR. […]

[3] = 10 mg/kg IP, brain tissue at 3 hours

In the case of `COc1ccc(C(=O)Nc2cc(-c3nc4ccccc4s3)ccc2C)cc1[N+](=O)[O-]` [ND-38], the CC50 (THP1-Dual cells) is reported as 44.9 µM.
With `CCOc1cccc(COc2ccc(C(=O)Nc3ccc(N4CCN(C(=O)c5cccs5)CC4)cc3)cc2)c1` [NA-42, 4-((3-ethoxybenzyl)oxy)-N-(4-(4-(thiophene-2-carbonyl)piperazin-1-yl)phenyl)benzamide] the “induction of IP-10 in mBMDMs” value [1] was “IRF3 dependent induction”.
`Cc1ccc2c(=O)c3cccc(CC(=O)O)c3oc2c1C` [DMXAA, 5,6-dimethylxanthenone-4-acetic acid] was tested, and the “induction of IRF-regulated genes RSAD2 and IFIT1” value (BV2 cells) was “most robust induction”, the “induction of IRF-regulated genes RSAD2 and IFIT1” value (Neuro2a cells) was “most robust induction” and the “IRF3 related gene expression in brain” value [2, 3] was “significant increase”. The “induction of pro-inflammatory genes TNF in brain” value [2, 3] was “minimal induction”, the “IRF-mediated gene induction in the brain” value ([2]; 5-fold lower dose (2 mg/kg IP), 3 hours, compared to vehicle) was “minimal increase” and the “protection against ischemic injury in mice lacking IRF3” value (cerebral ischemic injury; IRF3 KO mice, 250 μg IP) was “not protected”. For the same molecule, the “reduction in ischemic injury (infarct volume) compared to controls” value (cerebral ischemic injury; wild-type mice, 250 μg IP at onset of reperfusion) was 2 fold.
For `COc1ccc(C(=O)Nc2cc(-c3nc4cc(C)c(C)cc4o3)ccc2C)cc1[N+](=O)[O-]` [ND-13, N-(5-(5,6-dimethylbenzo[d]oxazol-2-yl)-2-methylphenyl)-4-methoxy-3-nitrobenzamide], the “induction of IP-10 in mBMDMs” value [1] was “IRF3 dependent induction”.
